# Assay results taken from patent US7425557B2, “Inhibitors of glycogen synthase kinase 3” (Novartis Vaccines and Diagnostics, Inc., priority 1998, dated 2008).
# Target: human GSK3β (Homo sapiens, UniProt P49841)
# Experiment: Screening for GSK3 inhibitory activity using a cell-free assay
# Format: biochemical
# Settings: read-out: IC50 with respect to GSK3
# Description: This amount represents the amount of radiolabeled phosphate incorporated into the peptide substrate.
# The captured radiolabeled peptide substrate can be quantitated in a scintillation counter using known methods. […] If an inhibitor is present during the reaction, GSK3 activity will be reduced, and a smaller quantity of radiolabeled phosphate will thus be incorporated into the peptide substrate.
# Pyrimidine and pyridine compounds of the present invention were dissolved in DMSO, then tested for inhibition of human GSK3β (the nucleotide sequence for human GSK3β appears in GenBank under Accession No. L33801).
# While the reaction was proceeding, streptavidin-coated Labsystems “Combiplate 8” capture plates (Labsystems, Helsinki, Finland) were blocked by incubating them with 300 μl/well of PBS containing 1% bovine serum albumin for at least one hour at room temperature. The blocking solution was then removed by aspiration, and the capture plates were filled with 100 ul/well of stopping reagent (50 μM ATP/20 mM EDTA).
# When the three hour enzyme reaction was finished, triplicate 100 μl aliquots of each reaction mix were transferred to three wells containing stopping solution, one well on each of the three capture plates, and the well contents were mixed well. […] Finally, 200 μl of Microscint-20 scintillation fluid was added to each well of the plate. The plates were coated with plate sealers, then left on a shaker for 30 minutes. Each capture plate was counted in a Packard TopCount scintillation counter (Meridian, Conn.) and the results were plotted as a function of compound concentration.
# human GSK3β, sequence (P49841 whole entry): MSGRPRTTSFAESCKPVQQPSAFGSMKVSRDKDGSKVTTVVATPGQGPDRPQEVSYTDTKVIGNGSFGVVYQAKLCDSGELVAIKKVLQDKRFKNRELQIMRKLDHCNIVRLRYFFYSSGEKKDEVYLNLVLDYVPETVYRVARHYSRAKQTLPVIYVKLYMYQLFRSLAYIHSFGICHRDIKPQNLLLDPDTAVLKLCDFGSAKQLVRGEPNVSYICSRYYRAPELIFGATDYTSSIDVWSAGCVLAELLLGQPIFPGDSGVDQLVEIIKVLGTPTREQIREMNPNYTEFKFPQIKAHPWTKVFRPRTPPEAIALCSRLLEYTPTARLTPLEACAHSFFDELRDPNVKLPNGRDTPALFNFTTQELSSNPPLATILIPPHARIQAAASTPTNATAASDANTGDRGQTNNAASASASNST
row,SMILES,IC50 [µM]
1,"CCOC(=O)c1cnc(NCCNc2ccc([N+](=O)[O-])cn2)nc1-c1ccc(F)c(F)c1 [ethyl 4-(3,4-difluorophenyl)-2-({2-[(5-nitro(2-pyridyl))amino]ethyl}amino)pyrimidine-5-carboxylate]",≤ 1
2,NC(=O)c1ccc(-c2ccnc(NCCNc3nc4ccccc4s3)n2)cc1,≤ 10
3,Cc1nccn1-c1cnc(NCCNc2ccc([N+](=O)[O-])c(N)n2)nc1-c1ccc(Cl)cc1Cl,≤ 1
4,Cc1nc(NCCNc2ccc([N+](=O)[O-])cn2)nc(-c2ccccc2)c1C(=O)O [6-methyl-2-({2-[(5-nitro(2-pyridyl))amino]ethyl}amino)-4-phenylpyrimidine-5-carboxylic acid],≤ 10
5,CCOC(=O)c1cnc(NCCNc2ccc([N+](=O)[O-])cn2)nc1-c1ccc(C(F)(F)F)cc1 [ethyl 2-({2-[(5-nitro(2-pyridyl))amino]ethyl}amino)-4-[4-(trifluoromethyl)phenyl]pyrimidine-5-carboxylate],≤ 1
6,Oc1ccc(-c2ccnc(NCCCOc3ccc(Cl)cc3)n2)cc1 [4-(2-{[3-(4-chlorophenoxy)propyl]amino}pyrimidin-4-yl)phenol],≤ 10
7,"COc1cccc(CCNc2nccc(-c3ccc(C(N)=O)cc3)n2)c1OC [4-(2-{[2-(2,3-dimethoxyphenyl)ethyl]amino}pyrimidin-4-yl)benzamide]",≤ 1
8,"CN(C)C1CC(=O)N(c2cnc(NCCNc3ccc([N+](=O)[O-])c(N)n3)nc2-c2ccc(Cl)cc2Cl)C1=O (stereo not drawn) [1-[2-({2-[(6-amino-5-nitro(2-pyridyl))amino]ethyl}amino)-4-(2,4-dichlorophenyl)pyrimidin-5-yl]-3-(dimethylamino)pyrrolidine-2,5-dione]",≤ 1
9,O=C(NCc1ccc(F)cc1)c1ccc(-c2ccnc(NCCNc3ccc([N+](=O)[O-])cn3)n2)cc1 [N-[(4-fluorophenyl)methyl]{4-[2-({2-[(5-nitro(2-pyridyl))amino]ethyl}amino)pyrimidin-4-yl]phenyl}carboxamide],≤ 10
10,CCOC(=O)c1ccc(-c2ccnc(NCCNc3ccc([N+](=O)[O-])cn3)n2)cc1 [ethyl 4-[2-({2-[(5-nitro-2-pyridyl)amino]ethyl}amino)pyrimidin-4-yl]benzoate],≤ 10
11,CCOC(=O)c1cnc(NCCNc2ccc([N+](=O)[O-])cn2)nc1-c1ccc(S(N)(=O)=O)cc1 [ethyl 2-({2-[(5-nitro(2-pyridyl))amino]ethyl}amino)-4-(4-sulfamoylphenyl)pyrimidine-5-carboxylate],≤ 10
12,O=C(NCc1cccnc1)c1ccc(-c2ccnc(NCCNc3ccc([N+](=O)[O-])cn3)n2)cc1 [{4-[2-({2-[(5-nitro(2-pyridyl))amino]ethyl}amino)pyrimidin-4-yl]phenyl}-N-(3-pyridylmethyl)carboxamide],≤ 10
13,O=[N+]([O-])c1ccc(NCCNc2ccc([N+](=O)[O-])c(NCc3ccccc3)n2)nc1 [{2-[(5-nitro(2-pyridyl))amino]ethyl}{5-nitro-6-[benzylamino](2-pyridyl)}amine],≤ 10
14,CCOC(=O)c1c(-c2ccc(C(N)=O)cc2)nc(NCCNc2ccc([N+](=O)[O-])cn2)nc1-c1ccc([N+](=O)[O-])cc1 [ethyl 4-(4-carbamoylphenyl)-2-({2-[(5-nitro(2-pyridyl))amino]ethyl}-amino)-6-(4-nitrophenyl)pyrimidine-5-carboxylate],≤ 1
15,c1ccc(-c2ccnc(NCCNc3ccccn3)n2)cc1 [(4-phenylpyrimidin-2-yl)[2-(2-pyridylamino)ethyl]amine],≤ 10
16,COc1ccc(CNc2nccc(-c3ccc(C(N)=O)cc3)n2)cc1 [4-(2-{[(4-methoxyphenyl)methyl]amino}pyrimidin-4-yl)benzamide],≤ 10
17,N#Cc1ccc(-c2nc(NCCNc3ccc([N+](=O)[O-])cn3)ncc2[N+](=O)[O-])cc1 [4-[5-nitro-2-({2-[(5-nitro(2-pyridyl))amino]ethyl}amino)pyrimidin-4-yl]benzenecarbonitrile],≤ 10
18,COc1cccc(-c2cccc(CNc3nccc(-c4ccc(C(N)=O)cc4)n3)c2)c1 [4-[2-({[3-(3-methoxyphenyl)phenyl]methyl}amino)pyrimidin-4-yl]benzamide],≤ 10
19,COc1ccccc1-c1nc(NCCNc2ccc([N+](=O)[O-])cn2)ncc1C(=O)O [4-(2-methoxyphenyl)-2-({2-[(5-nitro(2-pyridyl))amino]ethyl}amino)pyrimidine-5-carboxylic acid],≤ 10
20,"O=[N+]([O-])c1ccc(NCCN(CCN2CCCC2)c2ncc(-n3ccnc3)c(-c3ccc(Cl)cc3Cl)n2)nc1 [[4-(2,4-dichlorophenyl)-5-imidazolylpyrimidin-2-yl]{2-[(5-nitro(2-pyridyl))amino]ethyl}(2-pyrrolidinylethyl)amine]",≤ 1
21,CC(=O)Nc1ccc(-c2ccnc(NCCNc3ccc([N+](=O)[O-])cn3)n2)cc1 [N-{4-[2-({2-[(5-nitro-2-pyridyl)amino]ethyl}amino)-pyrimidin-4-yl]phenyl}acetamide],≤ 10
22,O=[N+]([O-])c1ccc(NCCNc2ncc(-c3ncc[nH]3)c(-c3ccc(Cl)cc3)n2)nc1 [[4-(4-chlorophenyl)-5-imidazol-2-ylpyrimidin-2-yl]{2-[(5-nitro(2-pyridyl))amino]ethyl}amine],≤ 1
23,CS(=O)(=O)c1cnc(NCCNc2ccc([N+](=O)[O-])cn2)nc1-c1ccc(C#N)cc1 [4-[5-(methylsulfonyl)-2-({2-[(5-nitro(2-pyridyl))amino]ethyl}amino)pyrimidin-4-yl]benzenecarbonitrile],≤ 1
24,CCOC(=O)c1cnc(NCCNc2ccc([N+](=O)[O-])cn2)nc1-c1ccc(Cl)cc1 [ethyl 4-(4-chlorophenyl)-2-({2-[(5-nitro(2-pyridyl))amino]ethyl}amino)pyrimidine-5-carboxylate],≤ 1
25,O=[N+]([O-])c1ccc(NCCNc2nccc(-c3ccc(S(=O)(=O)NCc4cccc(Br)c4)cc3)n2)nc1 [[(3-bromophenyl)methyl]({4-[2-({2-[(5-nitro(2-pyridyl))amino]ethyl}-amino)pyrimidin-4-yl]phenyl}sulfonyl)amine],≤ 10
26,CCOC(=O)c1cnc(NCCNc2ccccn2)nc1-c1cccc([N+](=O)[O-])c1 [ethyl 4-(3-nitrophenyl)-2-{[2-(2-pyridylamino)ethyl]amino}pyrimidine-5-carboxylate],≤ 10
27,CC(=O)Nc1cccc(-c2cccc(CNc3nccc(-c4ccc(C(N)=O)cc4)n3)c2)c1 [4-{2-[({3-[3-(acetylamino)phenyl]phenyl}methyl)amino]pyrimidin-4-yl}benzamide],≤ 10
28,N#Cc1ccc(-c2nc(NCCNc3ccc([N+](=O)[O-])cn3)ncc2C(=O)NCC(N)=O)cc1 [N-(carbamoylmethyl)[4-(4-cyanophenyl)-2-({2-[(5-nitro(2-pyridyl))amino]ethyl}amino)pyrimidin-5-yl]carboxamide],≤ 1
29,N#Cc1ccc(-c2ccnc(NCCNc3ccccn3)n2)cc1 [4-(2-{[2-(2-pyridylamino)ethyl]amino}pyrimidin-4-yl)benzenecarbonitrile],≤ 10
30,Nc1nc(NCCNc2nccc(-c3ccc(C(=O)NCc4cccc(Br)c4)cc3)n2)ccc1[N+](=O)[O-] [{4-[2-({2-[(6-amino-5-nitro(2-pyridyl))amino]ethyl}amino)pyrimidin-4-yl]phenyl}-N-[(3-bromophenyl)methyl]-carboxamide],≤ 10
